# According to patent US11396016B2, “System and method for a biomimetic fluid processing” (The Brigham and Women's Hospital, Inc., priority 2013, dated 2022):
# Tested on: MKs
# Assay: Shear-induced proPLT production and PLT release by MKs in the microfluidic device (live-cell microscopy)
# Assay type: cell-based, mouse
# Conditions: for PLT release: under both static and physiological shear conditions; for shear-induced proPLT production: physiological shear
# Method: Devices were coated with a 0.22 μm filtered 10% BSA solution (Millipore, Billerica, Mass.) for 30 minutes to prevent direct cell contact with glass. Primary MKs and media were infused in the first inlet 118 and second inlet 122, respectively, at a rate of 12.5 μL/hour using a two-syringe microfluidic pump (Harvard Apparatus, Holliston, Mass.). When the first outlet 120 is closed, both input solutions are redirected toward the second outlet 124 causing primary MKs to trap.
# For shear cultures, MKs were loaded onto ‘naked’ microfluidic devices (only BSA-coated), and the infusion rate was doubled incrementally from 12.5 μL/hr to 200 μL/hr over a 2 hour period. For static cultures, isolated MKs were pipetted into chambers formed by mounting a glass coverslide coated with 3% BSA onto a […] with a 1 cm hole and cultured for 24 hours. Both static and shear cultures were maintained at 37 degrees C. and 5 percent CO2 and examined on a Zeiss Axiovert 200 (Carl Zeiss, Thornwood, N.Y.) equipped with 10× (numerical aperature, 0.30) Plan-Neofluar air objective. Differential interference contrast (DIC) images were obtained using CCD camera (Hamamatsu Photonics, Boston, Mass.) at either 2 second (shear cultures) or 20 minute (static cultures) intervals. Images were analyzed using the Metamorph version 7.7.2.0 image analysis software (Molecular Devices, Sunnyvale, Calif., USA) and ImageJ software version 1.47p. ProPLT extension rates were determined manually for over 200 MKs from at least three independent samples. For PLT spreading experiments, effluent was collected from microfluidic devices after 2 hours and pipetted into uncoated static culture chambers, described above. PLTs were permitted to contact glass by gravity sedimentation and spreading was captured at 5 second intervals over a 5 minute period.
# In vivo BM MKs extend proPLTs in the direction of blood flow and release PLTs, proPLTs, large cytoplasmic fragments (prePLTs), and even whole MKs into sinusoidal blood vessels which may be trapping in the pulmonary microvascular bed, or otherwise maturing in the circulation. To determine the effect of physiological shear on PLT production, mouse fetal liver culture-derived (mFLC) MKs were isolated on culture day 4 and characterized by size and ploidy before being infused into the microfluidic device (shown in FIG. 3A).
# While shear rates were kept constant, proPLT extension rates varied at different positions along the shaft, predictive of a regulated cytoskeletal driven mechanism of proPLT elongation (shown in FIG. 4C). […]
SMILES,PLT release (1 mM EHNA),shear-induced proPLT production (MKs incubated with 1 mM EHNA prior to infusion in microfluidic device),PLT release (5 μM Jas),shear-induced proPLT production (MKs incubated with 5 μM Jas prior to infusion in microfluidic device)
CCCCCC[C@@H]([C@@H](C)O)n1cnc2c(N)ncnc21 (racemic) [EHNA],inhibited,inhibit,,
"C/C1=C\[C@H](C)C[C@H](C)OC(=O)C[C@H](c2ccc(O)cc2)NC(=O)[C@@H](Cc2c(Br)[nH]c3ccccc23)N(C)C(=O)[C@H](C)NC(=O)[C@@H](C)C1 [Jas, Jasplankinolide]",,,inhibited,inhibit
